Test results from BindingDB's records for doi:10.1111/cbdd.12141 (Konkuk University, 2013).

What follows are compounds tested against Xanthine dehydrogenase/oxidase (Bos taurus, UniProt P80457) (assay: XO inhibitory activity). Details: pH 7.6; 25 °C.
Description: The enzyme was pre-incubated for 5 min, with test compound, dissolved in DMSO (1% v/v). The reaction was initiated by the addition of xanthine.

Chain of Xanthine dehydrogenase/oxidase (P80457 whole entry): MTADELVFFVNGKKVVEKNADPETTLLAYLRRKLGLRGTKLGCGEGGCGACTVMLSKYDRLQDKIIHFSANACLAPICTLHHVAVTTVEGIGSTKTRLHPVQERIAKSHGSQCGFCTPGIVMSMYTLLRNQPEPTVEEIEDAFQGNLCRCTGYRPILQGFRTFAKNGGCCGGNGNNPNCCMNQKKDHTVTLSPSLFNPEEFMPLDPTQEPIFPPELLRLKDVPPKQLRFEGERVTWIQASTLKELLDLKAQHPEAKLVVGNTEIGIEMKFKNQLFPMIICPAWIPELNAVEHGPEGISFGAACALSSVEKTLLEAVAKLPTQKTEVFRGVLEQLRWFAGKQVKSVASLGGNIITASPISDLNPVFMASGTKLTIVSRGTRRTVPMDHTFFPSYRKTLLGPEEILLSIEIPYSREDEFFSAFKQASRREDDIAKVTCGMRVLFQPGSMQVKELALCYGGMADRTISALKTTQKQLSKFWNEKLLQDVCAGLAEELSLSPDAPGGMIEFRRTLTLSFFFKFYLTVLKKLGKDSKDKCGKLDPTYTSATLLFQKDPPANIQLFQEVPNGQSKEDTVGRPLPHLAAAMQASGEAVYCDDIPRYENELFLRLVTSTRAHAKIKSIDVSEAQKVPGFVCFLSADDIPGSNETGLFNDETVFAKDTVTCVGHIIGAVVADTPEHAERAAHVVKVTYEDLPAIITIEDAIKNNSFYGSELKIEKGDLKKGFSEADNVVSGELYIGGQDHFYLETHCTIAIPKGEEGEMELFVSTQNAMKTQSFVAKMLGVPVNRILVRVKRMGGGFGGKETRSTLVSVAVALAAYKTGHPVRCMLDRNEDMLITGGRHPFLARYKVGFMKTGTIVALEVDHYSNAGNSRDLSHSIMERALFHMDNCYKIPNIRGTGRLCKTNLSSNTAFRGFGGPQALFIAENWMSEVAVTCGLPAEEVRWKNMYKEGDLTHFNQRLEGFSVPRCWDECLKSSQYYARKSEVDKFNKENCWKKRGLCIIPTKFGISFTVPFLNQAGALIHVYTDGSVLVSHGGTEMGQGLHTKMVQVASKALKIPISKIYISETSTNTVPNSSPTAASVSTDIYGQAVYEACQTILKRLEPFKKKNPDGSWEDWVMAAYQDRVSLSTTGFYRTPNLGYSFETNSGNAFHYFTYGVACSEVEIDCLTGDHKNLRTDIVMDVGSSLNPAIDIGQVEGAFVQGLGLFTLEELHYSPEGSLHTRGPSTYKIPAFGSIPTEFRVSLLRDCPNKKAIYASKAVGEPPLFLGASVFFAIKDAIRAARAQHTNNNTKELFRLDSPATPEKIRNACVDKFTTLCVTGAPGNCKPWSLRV

**Q.** How did the IC50 turn out when `Cc1cccc(Cn2c(-c3cccc(C)c3)nc3ccccc32)c1` [2‐(3‐methylphenyl)‐1‐[(3‐methylphenyl)methyl]‐1,3‐ benzodiazole (B9)] was run?
**A.** 4.3 µM

**Q.** How did the IC50 turn out when `Clc1ccccc1Cn1c(-c2ccccc2Cl)nc2ccccc21` [2‐(2‐chlorophenyl)‐1‐[(2‐chlorophenyl)methyl]‐1,3‐ benzodiazole (B3)] was run?
**A.** 4.4 µM

**Q.** How did the IC50 turn out when `c1ccc(Cn2c(-c3ccccc3)nc3ccccc32)cc1` [1‐benzyl‐2‐phenyl‐1,3‐benzodiazole (B10)] was run?
**A.** 9.7 µM

**Q.** `COc1ccc(Cn2c(-c3ccc(OC)cc3)nc3ccccc32)cc1` [2‐(4‐methoxyphenyl)‐1‐[(4‐methoxyphenyl)methyl]‐ 1,3‐benzodiazole (B14)] was tested. Which IC50 did it give?
**A.** 8.5 µM

**Q.** Which IC50 does the source give for `Cc1ccccc1Cn1c(-c2ccccc2C)nc2ccccc21` [2‐(2‐methylphenyl)‐1‐[(2‐methylphenyl)methyl]‐1,3‐ benzodiazole (B4)] here?
**A.** 5.6 µM

**Q.** For `COc1cccc(Cn2c(-c3cccc(OC)c3)nc3ccccc32)c1` [2‐(3‐methoxyphenyl)‐1‐[(3‐methoxyphenyl)methyl]‐ 1,3‐benzodiazole (B13)], which IC50 is on record?
**A.** 5.1 µM

**Q.** Which IC50 does the source give for `Oc1cccc(Cn2c(-c3cccc(O)c3)nc3ccccc32)c1` [3‐{1‐[(3‐hydroxyphenyl)methyl]‐1,3‐benzodiazol‐2‐ yl}phenol (B7)] here?
**A.** 5.8 µM

**Q.** With `Oc1ccc2ccccc2c1-c1nc2ccccc2n1Cc1ccc2ccccc2c1O` [1‐{1‐[(1‐hydroxynaphthalen‐2‐yl)methyl]‐1,3‐ benzodiazol‐2‐yl}naphthalen‐2‐ol (B11)] as the compound, how does the IC50 read?
**A.** 5.3 µM

**Q.** How did the IC50 turn out when `Cc1ccc(Cn2c(-c3ccc(C)cc3)nc3ccccc32)cc1` [2‐(4‐methylphenyl)‐1‐[(4‐methylphenyl)methyl]‐1,3‐ benzodiazole (B5)] was run?
**A.** 7.5 µM

**Q.** Which IC50 does the source give for `Oc1ccc(Cn2c(-c3ccc(O)cc3)nc3ccccc32)cc1` [4‐{1‐[(4‐hydroxyphenyl)methyl]‐1,3‐benzodiazol‐2‐ yl}phenol (B6)] here?
**A.** 4.5 µM

**Q.** For `Clc1ccc(Cn2c(-c3ccc(Cl)cc3)nc3ccccc32)cc1` [2‐(4‐chlorophenyl)‐1‐[(4‐chlorophenyl)methyl]‐1,3‐ benzodiazole (B2)], which IC50 is on record?
**A.** 6.3 µM

**Q.** How did the IC50 turn out when `Oc1ccccc1Cn1c(-c2ccccc2O)nc2ccccc21` was run?
**A.** 8.7 µM

**Q.** How did the IC50 turn out when `Clc1cccc(Cn2c(-c3cccc(Cl)c3)nc3ccccc32)c1` [2‐(3‐chlorophenyl)‐1‐[(3‐chlorophenyl)methyl]‐1,3‐ benzodiazole (B8)] was run?
**A.** 8.2 µM

**Q.** For `c1cncc(Cn2c(-c3cccnc3)nc3ccccc32)c1` [2‐(pyridin‐3‐yl)‐1‐(pyridin‐3‐ylmethyl)‐1,3‐ benzodiazole (B12)], which IC50 is on record?
**A.** 7.1 µM
